Structures can show the parent of a compound that is named as a salt.
Key:
[1] = target: T1, recombinant human LTA4 hydrolase (Homo sapiens, UniProt P09960); assay: In vitro assay testing inhibitory activity against purified recombinant human LTA4 hydrolase; assay type: biochemical; details: LTB4 formation; table does not say which of the two described assays (enzyme or human whole blood)
T1 construct: A human LTA4 hydrolase full-length cDNA clone (NM_000895) was purchased from OriGene Technologies; own knowledge that pDEST17 adds an N-terminal 6xHis, consistent with the Ni-NTA purification) (N); made in house; host or cells: Escherichia coli BL21-AI
T1 sequence (P09960 1-611): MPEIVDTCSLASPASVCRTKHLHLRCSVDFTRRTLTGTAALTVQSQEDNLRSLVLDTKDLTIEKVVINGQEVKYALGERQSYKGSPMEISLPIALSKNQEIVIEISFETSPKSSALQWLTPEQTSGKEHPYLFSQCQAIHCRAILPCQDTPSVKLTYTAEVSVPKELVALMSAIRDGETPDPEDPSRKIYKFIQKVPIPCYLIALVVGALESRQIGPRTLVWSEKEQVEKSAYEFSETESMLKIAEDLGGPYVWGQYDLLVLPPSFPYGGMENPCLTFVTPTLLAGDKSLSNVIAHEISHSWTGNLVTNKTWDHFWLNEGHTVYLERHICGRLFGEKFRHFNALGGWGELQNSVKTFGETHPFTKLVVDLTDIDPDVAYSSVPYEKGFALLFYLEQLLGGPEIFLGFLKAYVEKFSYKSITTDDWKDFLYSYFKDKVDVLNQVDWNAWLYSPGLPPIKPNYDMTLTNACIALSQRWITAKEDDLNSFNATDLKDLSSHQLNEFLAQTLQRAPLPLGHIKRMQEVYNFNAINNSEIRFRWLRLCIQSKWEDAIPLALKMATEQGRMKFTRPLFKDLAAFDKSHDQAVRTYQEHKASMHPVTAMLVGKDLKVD
Excerpt: (1) In vitro assay testing inhibitory activity against purified recombinant human LTA4 hydroase. A human LTA4 hydrolase full-length cDNA clone (NM_000895) was purchased from OriGene Technologies (Rockville, Md.). The gene was amplified by polmerase chain reaction and transferred via pDONR201 into the bacterial expression vector pDEST17 by recombination (both plasmids from Invitrogen, Carlsbad, Calif.). The resulting construct was transformed into Escherichia coli BL21-AI (Invitrogen), and expression was induced by chemical induction with arabinose. The recombinant enzyme was purified by chromatography on an FPLC system (Amersham Biosciences, Uppsala, Sweden) using immobilized metal affinity chromatography (Ni-NTA Superflow, Qiagen, Hilden, Germany) and anion exchange chromatography (MonoQ HR 10/10, Amersham Biosciences).
The compounds of the invention were incubated in a series of dilutions with 200 nM of recombinant enzyme in assay buffer (100 mM Tris-HCl, 100 mM NaCl, 5 mg/ml fatty-acid free BSA, 10% DMSO, pH 8.0) for 10 min at room temperature to allow binding between LTA4 hydrolase and the inhibitors. LTA4 was prepared by alkaline hydrolysis of LTA4 methyl ester (Biomol, Plymouth Meeting, Pa., or Cayman Chemicals, Ann Arbor, Mich.). A solution of 10 μg of the ester was dried under a nitrogen stream and redissolved in 60 μl of a solution of 80% acetone and 20% 0.25 M NaOH. After incubation for 40 min at room temperature the resulting approximately 500 μM tock of LTA4 was kept at −80° C. for no more than a few days prior to use.
Immediately before the assay, LTA4 was diluted to a concentration of 10 μM in assay buffer (without DMSO) and added to the reaction mixture to a final concentration of 2 μM to initiate the enzyme reaction. After incubation for 120 sec at room temperature, the reaction was stopped by adding 2 volumes of chilled quenching buffer, containing acetonitril with 1% acetic acid and 225 nM LTB4-d4 (Biomol). The samples were then kept at 4° C. overnight to complete protein precipitation and centrifuged for 15 min at 1800 g. LTB4 formed was measured by LC-MS/MS using LTB4-d4 as an internal standard and an external LTB4 standard (Biomol) as reference. Based on the amounts of LTB4 found at each inhibitor concentration, a dose-response curve was fitted to the data and an IC50 value was calculated.

colitis symptoms = details: eight weeks of treatment, primate model of spontaneous colitis; cited from earlier work
LTA4H [2] = target: T2, LTA4H (Mus musculus, UniProt P24527); details: oral administration, mouse blood ex vivo; cited from earlier work
T2 construct: host or cells: mouse blood (ex vivo, after oral dosing)
T2 sequence (P24527 1-611): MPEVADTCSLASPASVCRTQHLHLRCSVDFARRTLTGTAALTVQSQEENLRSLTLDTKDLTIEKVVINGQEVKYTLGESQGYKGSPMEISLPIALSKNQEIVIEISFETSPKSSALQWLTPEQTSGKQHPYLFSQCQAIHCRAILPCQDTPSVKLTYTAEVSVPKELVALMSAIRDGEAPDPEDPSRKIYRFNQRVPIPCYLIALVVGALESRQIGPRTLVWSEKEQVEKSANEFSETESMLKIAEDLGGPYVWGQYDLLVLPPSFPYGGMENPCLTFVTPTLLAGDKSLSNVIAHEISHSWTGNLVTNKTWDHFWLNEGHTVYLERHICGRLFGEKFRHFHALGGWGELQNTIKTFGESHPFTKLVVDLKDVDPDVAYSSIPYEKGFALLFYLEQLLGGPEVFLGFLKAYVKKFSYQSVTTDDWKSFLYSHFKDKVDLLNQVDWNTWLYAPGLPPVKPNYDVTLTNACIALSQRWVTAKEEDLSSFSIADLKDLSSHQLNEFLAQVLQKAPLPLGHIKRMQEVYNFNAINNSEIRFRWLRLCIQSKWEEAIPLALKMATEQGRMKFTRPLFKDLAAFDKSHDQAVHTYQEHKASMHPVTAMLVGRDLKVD

LTA4H [3] = target: T3, LTA4H (Rattus norvegicus, UniProt P30349); details: oral administration, rat peritoneum in vivo; cited from earlier work
T3 construct: and in rat peritoneum in vivo; host or cells: rat peritoneum (in vivo, after oral dosing)
T3 sequence (P30349 1-611): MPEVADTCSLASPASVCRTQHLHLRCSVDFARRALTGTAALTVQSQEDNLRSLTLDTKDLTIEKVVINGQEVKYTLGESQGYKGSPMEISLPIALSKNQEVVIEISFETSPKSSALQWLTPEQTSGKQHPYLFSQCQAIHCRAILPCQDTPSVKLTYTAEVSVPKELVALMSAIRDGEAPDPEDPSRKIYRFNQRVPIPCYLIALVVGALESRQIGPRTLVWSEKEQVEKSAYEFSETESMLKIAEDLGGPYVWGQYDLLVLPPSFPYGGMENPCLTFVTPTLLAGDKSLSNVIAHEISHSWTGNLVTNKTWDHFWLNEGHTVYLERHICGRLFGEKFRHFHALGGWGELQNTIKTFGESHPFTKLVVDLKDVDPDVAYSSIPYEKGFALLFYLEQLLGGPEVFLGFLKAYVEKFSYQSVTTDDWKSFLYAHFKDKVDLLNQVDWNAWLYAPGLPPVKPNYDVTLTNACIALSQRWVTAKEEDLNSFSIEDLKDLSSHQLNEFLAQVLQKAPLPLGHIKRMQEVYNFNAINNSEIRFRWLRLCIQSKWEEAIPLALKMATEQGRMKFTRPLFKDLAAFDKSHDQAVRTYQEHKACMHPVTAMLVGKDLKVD

SMILES: c1ccn(-c2ccc(OC[C@H]3CCCN3)cc2)c1 [Example 7, 1-[4-((R)-1-Pyrrolidin-2-ylmethoxy)-phenyl]-1H-pyrrole hydrochloride]
- IC50 [1]: < 5 µM

SMILES: Cc1c(C(F)F)cnn1-c1ccc(OCCN2CCCCC2)cc1 [Example 6, 1-{2-[4-(4-Difluoromethyl-5-methyl-pyrazol-1-yl)-phenoxy]-ethyl}-piperidine]
- IC50 [1]: 5 to 20 µM

SMILES: Cc1ccn(-c2ccc(OCCN3CCCCC3)cc2)n1 [Example 2, 1-{2-[4-(3-Methyl-pyrazol-1-yl)-phenoxy]-ethyl}-piperidine]
- IC50 [1]: 5 to 20 µM

SMILES: CN(CCCOc1ccc(Cc2ccccc2)cc1)CCC(=O)O.Cl [SC57461]
- colitis symptoms (colitis symptoms): significantly improved colitis symptoms
- inhibition of ionophore-induced LTB4 production (LTA4H [2]): inhibition of ionophore-induced LTB4 production
- inhibition of ionophore-induced LTB4 production (LTA4H [3]): inhibition of ionophore-induced LTB4 production

SMILES: O=Cc1cccn1-c1ccc(OCCN2CCCCC2)cc1 [Example 10, 1-[4-(2-Piperidin-1-yl-ethoxy)-phenyl]-1H-pyrrole-2-carbaldehyde]
- IC50 [1]: < 5 µM

SMILES: Cc1cc(C)n(-c2ccc(OCCN3CCCCC3)cc2)n1 [Example 3, 1-{2-[4-(3,5-Dimethyl-pyrazol-1-yl)-phenoxy]-ethyl}-piperidine]
- IC50 [1]: < 5 µM

SMILES: Cc1cc(C(F)(F)F)n(-c2ccc(OCCN3CCCCC3)cc2)n1 [Example 5, 1-{2-[4-(3-Methyl-5-trifluoromethyl-pyrazol-1-yl)-phenoxy]-ethyl}-piperidine]
- IC50 [1]: < 5 µM

SMILES: c1cnn(-c2ccc(OCCN3CCCCC3)cc2)c1 [Example 1, 1-[2-(4-Pyrazol-1-yl-phenoxy)-ethyl]-piperidine]
- IC50 [1]: 5 to 20 µM

SMILES: FC(F)(F)c1ccnn1-c1ccc(OCCN2CCCCC2)cc1 [Example 4, 1-{2-[4-(5-Trifluoromethyl-pyrazol-1-yl)-phenoxy]-ethyl}-piperidine]
- IC50 [1]: 5 to 20 µM

SMILES: Brc1cccn1-c1ccc(OCCN2CCCCC2)cc1 [Example 9, 1-{2-[4-(2-Bromo-pyrrol-1-yl)-phenoxy]-ethyl}-piperidine]
- IC50 [1]: < 5 µM

SMILES: c1ccn(-c2ccc(OCCN3CCCCC3)cc2)c1 [Example 8, 1-[2-(4-Pyrrol-1-yl-phenoxy)-ethyl]-piperidine]
- IC50 [1]: < 5 µM
